Data published in ChEMBL document CHEMBL1201862, “PubChem BioAssay data set” (2004).
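These data come from cells grown in 96-well plates and exposed to compound for 48 hours at five concentrations. Abbreviation: GI50, concentration required for 50% inhibition of growth.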 Activity calls are given as the source filed them. No stated cut-off is given here; in the data, active = GI50 up to about 1.1 µM and inactive = higher.

Assays:
Assay in all cases: growth of human tumour cells (NCI), 48 h
U-251 = system: U-251
SK-MEL-28 = system: SK-MEL-28
NCI-H226 = system: NCI-H226
OVCAR-4 = system: OVCAR-4
TK-10 = system: TK-10
UO-31 = system: UO-31
IGROV-1 = system: IGROV-1
HCT-15 = system: HCT-15
SF-295 = system: SF-295
NCI-H23 = system: NCI-H23
NCI-H460 = system: NCI-H460
A498 = system: A498
SNB-75 = system: SNB-75
SW-620 = system: SW-620
OVCAR-5 = system: OVCAR-5
EKVX = system: EKVX
A549 = system: A549
UACC-257 = system: UACC-257

SMILES	GI50 (U-251)	GI50 (SK-MEL-28)	GI50 (NCI-H226)	GI50 (OVCAR-4)	GI50 (TK-10)	GI50 (UO-31)	GI50 (IGROV-1)	GI50 (HCT-15)	GI50 (SF-295)	GI50 (NCI-H23)	GI50 (NCI-H460)	GI50 (A498)	GI50 (SNB-75)	GI50 (SW-620)	GI50 (OVCAR-5)	GI50 (EKVX)	GI50 (A549)	GI50 (UACC-257)
CCN1C(=O)N2C(OC)c3ccccc3C(Br)C2(OC)C1=O (stereo unspecified)	> 100 µM (inactive)	> 100 µM (inactive)	> 100 µM (inactive)	> 100 µM (inactive)	> 100 µM (inactive)	> 100 µM (inactive)	> 100 µM (inactive)	> 100 µM	> 100 µM (inactive)	> 100 µM (inactive)	> 100 µM (inactive)	> 100 µM (inactive)	48.3 µM (inactive)	> 100 µM (inactive)	> 100 µM (inactive)	–	–	–
O=C(Nc1ccccc1-c1n[nH]c(S)nc1=O)C(F)(F)F	> 100 µM (inactive)	> 100 µM (inactive)	> 100 µM (inactive)	> 100 µM (inactive)	> 100 µM (inactive)	> 100 µM (inactive)	> 100 µM (inactive)	> 100 µM	> 100 µM (inactive)	> 100 µM (inactive)	> 100 µM (inactive)	–	> 100 µM (inactive)	> 100 µM (inactive)	> 100 µM (inactive)	> 100 µM (inactive)	> 100 µM (inactive)	–
CCC1=C(C[C@H]2NCCc3cc(OC)c(OC)cc32)C[C@H]2c3cc(OC)c(OC)cc3CCN2C1	0.031 µM (active)	0.0365 µM (active)	–	0.0143 µM (active)	–	0.316 µM (active)	0.0445 µM (active)	0.258 µM	0.0331 µM (active)	0.0191 µM (active)	0.0261 µM (active)	0.0181 µM (active)	0.0332 µM (active)	0.028 µM (active)	0.0521 µM (active)	0.0362 µM (active)	0.0317 µM (active)	0.0473 µM (active)
CC(=O)NC1C(OCc2ccccc2)OC(CO)C(O)C1OC(C)C(=O)N[C@@H](C)C(=O)N[C@H](CCC(=O)OCCNc1c2ccccc2nc2cccc([N+](=O)[O-])c12)C(N)=O (stereo partly specified)	–	0.00441 µM (active)	0.00548 µM (active)	0.0038 µM (active)	0.00344 µM (active)	0.00292 µM (active)	0.0215 µM (active)	0.000166 µM	0.00427 µM (active)	0.00148 µM (active)	0.000129 µM (active)	0.00501 µM (active)	0.0114 µM (active)	0.000191 µM (active)	0.00206 µM (active)	0.00165 µM (active)	0.00146 µM (active)	0.00339 µM (active)
CC12CCCC(C#N)(C1)OC2=O (stereo unspecified)	> 100 µM (inactive)	> 100 µM (inactive)	> 100 µM (inactive)	> 100 µM (inactive)	> 100 µM (inactive)	> 100 µM (inactive)	> 100 µM (inactive)	–	> 100 µM (inactive)	> 100 µM (inactive)	> 100 µM (inactive)	> 100 µM (inactive)	> 100 µM (inactive)	> 100 µM (inactive)	> 100 µM (inactive)	> 100 µM (inactive)	> 100 µM (inactive)	> 100 µM (inactive)
O=c1[nH]c(-c2ccc([N+](=O)[O-])cc2)nc2ccc(Cl)cc12	54.6 µM (inactive)	> 100 µM (inactive)	> 10 µM (inactive)	–	51.8 µM (inactive)	> 100 µM (inactive)	55.3 µM (inactive)	94.4 µM	> 100 µM (inactive)	> 100 µM (inactive)	–	–	57.5 µM (inactive)	> 100 µM (inactive)	> 100 µM (inactive)	> 100 µM (inactive)	> 100 µM (inactive)	> 100 µM (inactive)
O=c1nc2n(c3nsnc13)CCO2	> 100 µM (inactive)	> 100 µM (inactive)	> 100 µM (inactive)	–	> 100 µM (inactive)	> 100 µM (inactive)	> 100 µM (inactive)	> 100 µM	–	> 100 µM (inactive)	> 100 µM (inactive)	–	> 100 µM (inactive)	> 100 µM (inactive)	> 100 µM (inactive)	> 100 µM (inactive)	> 100 µM (inactive)	> 100 µM (inactive)
CC1(C)OC2C(CO)OC(N/C(=N/C#N)Oc3ccccc3)C2O1 (stereo unspecified)	> 100 µM (inactive)	> 100 µM (inactive)	> 100 µM (inactive)	> 100 µM (inactive)	> 100 µM (inactive)	> 100 µM (inactive)	> 100 µM (inactive)	> 100 µM	> 100 µM (inactive)	> 100 µM (inactive)	> 100 µM (inactive)	–	75.9 µM (inactive)	> 100 µM (inactive)	> 100 µM (inactive)	> 100 µM (inactive)	> 100 µM (inactive)	> 100 µM (inactive)
Cn1c(=O)c2ccccc2c2nc3ccccc3nc21	> 100 µM (inactive)	> 100 µM (inactive)	> 100 µM (inactive)	–	45.5 µM (inactive)	> 100 µM (inactive)	> 100 µM (inactive)	> 100 µM	59.2 µM (inactive)	> 100 µM (inactive)	–	–	25.2 µM (inactive)	> 100 µM (inactive)	> 100 µM (inactive)	> 100 µM (inactive)	> 100 µM (inactive)	> 100 µM (inactive)
C/C(CC(=O)Nc1cc(Cl)c(Cl)cc1Cl)=N\NC(N)=O	> 100 µM (inactive)	> 100 µM (inactive)	> 100 µM (inactive)	–	> 100 µM (inactive)	> 100 µM (inactive)	> 100 µM (inactive)	–	> 100 µM (inactive)	> 100 µM (inactive)	–	–	66.5 µM (inactive)	> 100 µM (inactive)	> 100 µM (inactive)	> 100 µM (inactive)	> 100 µM (inactive)	> 100 µM (inactive)
C/C(=N\NC(=O)C(N)=O)c1c(O)cc(C)oc1=O	> 100 µM (inactive)	> 100 µM (inactive)	> 100 µM (inactive)	> 100 µM (inactive)	> 100 µM (inactive)	> 100 µM (inactive)	> 100 µM (inactive)	> 100 µM	> 100 µM (inactive)	> 100 µM (inactive)	> 100 µM (inactive)	> 100 µM (inactive)	> 100 µM (inactive)	> 100 µM (inactive)	–	> 100 µM (inactive)	> 100 µM (inactive)	> 100 µM (inactive)
CN1CCCC2[C@@H]3CCC4c5nonc5CC[C@]4(C)C3CC[C@@]21C (stereo partly specified)	> 100 µM (inactive)	37.6 µM (inactive)	> 100 µM (inactive)	> 100 µM (inactive)	> 100 µM (inactive)	> 100 µM (inactive)	> 100 µM (inactive)	57.7 µM	43.2 µM (inactive)	> 100 µM (inactive)	> 100 µM (inactive)	–	23.4 µM (inactive)	> 100 µM (inactive)	> 100 µM (inactive)	> 100 µM (inactive)	> 100 µM (inactive)	35 µM (inactive)
CN(C)CCN(C)CC1COC(C)(C)O1 (stereo unspecified)	> 100 µM (inactive)	> 100 µM (inactive)	> 100 µM (inactive)	> 100 µM (inactive)	> 100 µM (inactive)	> 100 µM (inactive)	> 100 µM (inactive)	–	> 100 µM (inactive)	> 100 µM (inactive)	> 100 µM (inactive)	> 100 µM (inactive)	> 100 µM (inactive)	> 100 µM (inactive)	> 100 µM (inactive)	> 100 µM (inactive)	> 100 µM (inactive)	> 100 µM (inactive)
CC1CCC2(CC1)NN=c1s/c(=C\c3ccc(O)cc3)c(=O)n1N2 (stereo unspecified)	> 100 µM (inactive)	> 100 µM (inactive)	> 100 µM (inactive)	> 100 µM (inactive)	> 100 µM (inactive)	–	> 100 µM (inactive)	–	> 100 µM (inactive)	> 100 µM (inactive)	> 100 µM (inactive)	–	63.5 µM (inactive)	> 100 µM (inactive)	–	> 100 µM (inactive)	> 100 µM (inactive)	–
COc1ccc(S(=O)(=O)N/N=C/CN2C(=O)c3ccccc3C2=O)cc1OC	> 100 µM (inactive)	–	–	> 100 µM (inactive)	–	> 100 µM (inactive)	> 100 µM (inactive)	> 100 µM	> 100 µM (inactive)	> 100 µM (inactive)	> 100 µM (inactive)	> 100 µM (inactive)	65.2 µM (inactive)	> 100 µM (inactive)	–	> 100 µM (inactive)	> 100 µM (inactive)	> 100 µM (inactive)
CCOC(=O)NC(=O)c1cn(CCCCCCOC(=O)NCCCCCCNC(=O)OCCCCCCn2cc(C(=O)NC(=O)OCC)c(=O)[nH]c2=O)c(=O)[nH]c1=O	> 100 µM (inactive)	> 100 µM (inactive)	> 100 µM (inactive)	> 100 µM (inactive)	–	> 100 µM (inactive)	> 100 µM (inactive)	> 100 µM	> 100 µM (inactive)	–	> 100 µM (inactive)	> 100 µM (inactive)	> 100 µM (inactive)	> 100 µM (inactive)	–	> 100 µM (inactive)	> 100 µM (inactive)	> 100 µM (inactive)
CNC(=S)N(C)C(=S)Nn1c(=O)c(C)nn(C)c1=S	> 100 µM (inactive)	> 100 µM (inactive)	> 100 µM (inactive)	> 100 µM (inactive)	–	–	> 100 µM (inactive)	> 100 µM	> 100 µM (inactive)	> 100 µM (inactive)	> 100 µM (inactive)	> 100 µM (inactive)	> 100 µM (inactive)	> 100 µM (inactive)	> 100 µM (inactive)	> 100 µM (inactive)	> 100 µM (inactive)	> 100 µM (inactive)
